# According to PubChem BioAssay AID687005 (Broad Institute, 2013):
# Inconclusive results are not listed. Activity calls are given as the source filed them.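 How the source made its calls: active means Compounds that reduce signal, with fitted half-maximal dose at or under twice the top valid tested dose; inconclusive means Poor fit, or flat curve losing 30 to 70% of signal; inactive means Potency past limit, flat within 30%, or opposite direction.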
# Experiment: HEK293T cell cytotoxicity, dose response, cytotoxicity control, ATP luminescence, cherry-pick samples (AID 687005)
# Settings: HEK293T viability, ATP luminescence (CellTiter-Glo), 48 h; at 23.5 µM (top of the series)
row,SMILES,"activity change, negative = cytotoxicity"
1,Cc1noc(C)c1NC(=O)N(C)C[C@H]1OCCCC[C@H](C)Oc2ccc(NC(=O)NC(C)C)cc2C(=O)N([C@@H](C)CO)C[C@@H]1C,68% (inactive)
2,Cc1noc(C)c1NC(=O)N(C)C[C@@H]1Oc2ccc(NC(=O)NC(C)C)cc2CC(=O)N([C@@H](C)CO)C[C@@H]1C,-4.18% (inactive)
3,C/C=C/c1ccc([C@H]2[C@@H](C#N)N(S(=O)(=O)c3cccc(F)c3)[C@H]2CO)cc1,7.73% (inactive)
4,C/C=C/c1ccc([C@H]2[C@@H](CO)N(C(=O)CC)[C@@H]2CNC(=O)C2CC2)cc1,42.4% (inactive)
5,C[C@H](CO)N1C[C@H](C)[C@@H](CN(C)C(=O)Nc2ccc(F)cc2)Oc2c(NS(=O)(=O)c3ccccc3)cccc2C1=O,-4.44% (inactive)
6,Cc1noc(C)c1NC(=O)Nc1ccc2c(c1)C(=O)N(C)[C@H]1CC[C@H](CC(=O)N[C@H]3CCN(Cc4ccccc4)C3)O[C@H]1CO2,-3.29% (inactive)

# Same assay, conditions: HEK293T viability, ATP luminescence (CellTiter-Glo), 48 h; at 26 µM (top of the series)
row,SMILES,"activity change, negative = cytotoxicity"
1,COc1cccc(NC(=O)N2C[C@H](O)COC[C@H]3O[C@@H](CC(=O)NCc4ccccc4F)CC[C@@H]32)c1,-23.2% (inactive)
2,O=C(NC1CCCCC1)N[C@H]1C=C[C@@H](CC(=O)N2CCOCC2)O[C@@H]1CO,17.4% (inactive)
3,C[C@@H]1CCCCO[C@H](CN(C)C(=O)c2ccccc2)[C@@H](C)CN([C@@H](C)CO)C(=O)c2cc(NC(=O)c3ccccc3)ccc2O1,5.72% (inactive)
4,CNC[C@@H]1OCCCC[C@@H](C)Oc2ccc(NS(=O)(=O)c3ccc(Cl)cc3)cc2C(=O)N([C@H](C)CO)C[C@H]1C,-31.3% (inactive)
5,CCC(=O)N1[C@@H]2Cn3c(ccc(C4=CCCCC4)c3=O)[C@H]1[C@@H](C(=O)N[C@H](C)c1ccccc1)[C@@H]2CO,-16.5% (inactive)
6,CO[C@H]1CN(C)C(=O)c2cc(NC(=O)c3ccc4c(c3)OCO4)ccc2OC[C@@H](C)N(CC2CC2)C[C@H]1C,-5.62% (inactive)
7,COC(=O)N(C)C[C@H]1OCc2cn(nn2)CCCC(=O)N([C@H](C)CO)C[C@@H]1C,-11% (inactive)
8,C[C@H]1CN([C@@H](C)CO)C(=O)Cc2cc(NS(=O)(=O)c3ccc(F)cc3)ccc2O[C@@H]1CN(C)S(=O)(=O)c1ccc(F)cc1,-11.2% (inactive)
9,O=C(c1ccco1)N1N=C(c2cccs2)CC1c1cc([N+](=O)[O-])ccc1O (stereo not given),37.4% (inactive)
10,CC(C)CC#Cc1cnc2c(c1)C(=O)N([C@@H](C)CO)C[C@@H](C)[C@@H](CN(C)C(=O)c1cccc(F)c1)O2,-19.3% (inactive)
11,C#CCN(C(=O)c1ccc(OC2CCN(C(=O)CCOC)CC2)cc1)C1CCCCC1,8.74% (inactive)
12,C[C@@H]1CN([C@@H](C)CO)C(=O)c2cccc(NC(=O)Nc3ccccc3)c2O[C@H]1CN(C)S(=O)(=O)c1cn(C)cn1,55.5% (inactive)
13,CCCNC(=O)N1C[C@@H](O)COC[C@H]2O[C@H](CC(=O)N3CCN(C)CC3)CC[C@@H]21,-7.83% (inactive)
14,Cc1cccc(-c2ccc([C@H]3[C@H](CO)N4CCCCN(C(=O)c5ccc6c(c5)OCO6)C[C@@H]34)cc2)c1,70.3% (inactive)
15,COc1ccccc1NC(=O)N[C@H]1CC[C@@H](CCn2cc(-c3ccccc3OC)nn2)O[C@@H]1CO,-9.57% (inactive)
16,Cc1ccc(C(=O)NC(=S)Nc2ccccc2N2CCCC2)cc1[N+](=O)[O-],-8.33% (inactive)
17,C[C@H]1CN([C@@H](C)CO)C(=O)c2cc(-c3ccc(F)cc3)cnc2O[C@@H]1CN(C)CC1CCCCC1,-16.9% (inactive)
18,CO[C@H]1CN(C)C(=O)c2cc(NS(=O)(=O)c3ccc(C)cc3)ccc2OC[C@@H](C)N(C(=O)NC(C)C)C[C@@H]1C,26.2% (inactive)

# Same assay, conditions: HEK293T viability, ATP luminescence (CellTiter-Glo), 48 h; at 42 µM (top of the series)
row,SMILES,"activity change, negative = cytotoxicity"
1,O=C(Cc1cccs1)N1CCN(c2ccccc2)CC1,21.1% (inactive)
